Experimental data: patent US20200308619A1, “GENE CONSTRUCT AND BIOSENSOR FOR THE RAPID DETECTION OF AHL MOLECULES AND THE PATHOGENIC BACTERIA THAT PRODUCE SAME” (UNIVERSIDAD DE VALPARAISO, priority 2017, published 2020)

System: E. coli pUCPAO1RHL biosensor strain
Assay: Biosensor fluorescence emission (GFP) in response to AHL extract and copper
Format: cell-based, Escherichia coli
Conditions: copper by itself, no AHL
Method: The biosensing strain named E. coli pUCPAO1RHL that contains the gene construct of the invention, was used to evaluate its response to the presence of AHLs and the presence of copper. For the evaluation, AHLs were obtained from the bacterium Pseudomonas aeruginosa from a 12-hour bacterial culture in late exponential phase. For this, the supernatant was separated from the bacterial cells by centrifugation at 8,000 rpm for 15 minutes. An organic extraction with dichloromethane (DCM) from the supernatant was performed in a ratio of 70:30 (Supernatant: DCM). For this, 200 ml of supernatant and 85 ml of DCM were incorporated into a […] volume decantation flask. It was stirred vigorously, then left to settle at room temperature for 1 hour. […]
The biosensor strain (180 μL) was grown in the presence of 10 μL of AHL extract (obtained from the stationary phase of growth of P. aeruginosa) and in the presence of 500 μM of copper (such as CuSO4) in Luria Bertani liquid medium at 37° C. stirred in 96-well plates on a temperature controlled orbital shaker spectrofluorometer equipment (Tecan USA). During growth, turbidity was recorded at an absorbance of 600 nm and fluorescence at […] every 15 minutes, equivalent to one cycle of fluorescence emission measurement. […]

In the case of `O=S(=O)([O-])[O-].[Cu+2]` [copper, CuSO4], the “inducing effect on fluorescence” value is reported as “did not show an obvious inducing effect of fluorescence”.
